Laboratory results published in patent US10214522B2, “Anti-alphavbeta1 integrin inhibitors and methods of use” (The Regents of the University of California, priority 2015, dated 2019).

The compounds below were run against T1, αvβ1 integrin (UniProt G3HZ55+P06756) (assay: Cell Adhesion Assay (integrin-specific adhesion, αvβ1)). Conditions: CHO cells transfected with human αv adhering to 0.3 μg/ml fibronectin; read-out: Cell Adhesion Assay IC50 range.
T1 construct: expressed in transfected cells; host or cells: CHO cells (elsewhere described as α5-deficient CHO) transfected with human αv
Type: cell-based
Procedure: The effects of compounds on cell adhesion mediated by […], α8β1, αvβ1, αvβ3, αvβ5, αvβ6, and αvβ8 are measured using pairs of cell lines and ligands selected to isolate the effect of each individual integrin. For α5β1 we utilize the colon carcinoma cell line, SW480, plated on 0.3 μg/ml fibronectin, for α8β1, we utilize SW480 cells transfected with human α8 adhering to 1 μg/ml recombinant TGFβ1 LAP [5], for αvβ1 we use Chinese Hamster Ovary Cells (CHO cells) transfected with human αv adhering to 0.3 μg/ml fibronectin [6], for αvβ3 we use SW480 cells transfected with human β3, for αvβ5 we use wild type SW480 cells adhering to 0.1 μg/ml vitronectin. For αvβ6 we use SW480 cells transfected with human β6 adhering to 0.01 μg/ml recombinant human TGFβ1 LAP. For αvβ8 we use glioma cell line (SNB19) expressing β8 adhering to 1 μg/ml recombinant human TGFβ1 LAP.
(§1) The effects of the compound on cell adhesion mediated by αvβ1 integrin were measured using Chinese Hamster Ovary Cells (CHO cells) transfected with human αv adhering to 0.3 μg/ml fibronectin. In every case, we confirmed that adhesion could be inhibited by blocking antibodies to αv and β1. Cells were resuspended in DMEM for 30 min at 4° C. with 10-fold dilutions of the compound with a starting concentration of 10 μM. Each sample was then added to triplicate wells of a 96-well plate which had been coated overnight at 4° C. with the relevant ligand, washed, blocked by 1 hr incubation with 1% BSA, and washed again. Cells were allowed to attach for 30-60 min at 37° C. After incubation, non-adherent cells were removed by discarding the media and spinning the plate top-side down at 500 rpm for 5 minutes. Cells were then fixed and stained with 40 ul of 0.5% Crystal violet, 1% Formaldehyde, 20% Methanol for 30 minutes and lysed with 2% Trition-X. Absorbance was measured at 595 nm in a Microplate reader. For all assays, concentration-response curves were constructed by non-linear regression analysis and IC50 values using Graphpad PRISM (ver 6.0).
as §1, with “Integrin specific” for “effects of the compound on cell”, “assays” for “mediated by αvβ1 integrin”, “In every case, we confirmed that adhesion could be inhibited by blocking antibodies to αv and β1.” left out

T1 sequence (P06756 31-889 limits assumed): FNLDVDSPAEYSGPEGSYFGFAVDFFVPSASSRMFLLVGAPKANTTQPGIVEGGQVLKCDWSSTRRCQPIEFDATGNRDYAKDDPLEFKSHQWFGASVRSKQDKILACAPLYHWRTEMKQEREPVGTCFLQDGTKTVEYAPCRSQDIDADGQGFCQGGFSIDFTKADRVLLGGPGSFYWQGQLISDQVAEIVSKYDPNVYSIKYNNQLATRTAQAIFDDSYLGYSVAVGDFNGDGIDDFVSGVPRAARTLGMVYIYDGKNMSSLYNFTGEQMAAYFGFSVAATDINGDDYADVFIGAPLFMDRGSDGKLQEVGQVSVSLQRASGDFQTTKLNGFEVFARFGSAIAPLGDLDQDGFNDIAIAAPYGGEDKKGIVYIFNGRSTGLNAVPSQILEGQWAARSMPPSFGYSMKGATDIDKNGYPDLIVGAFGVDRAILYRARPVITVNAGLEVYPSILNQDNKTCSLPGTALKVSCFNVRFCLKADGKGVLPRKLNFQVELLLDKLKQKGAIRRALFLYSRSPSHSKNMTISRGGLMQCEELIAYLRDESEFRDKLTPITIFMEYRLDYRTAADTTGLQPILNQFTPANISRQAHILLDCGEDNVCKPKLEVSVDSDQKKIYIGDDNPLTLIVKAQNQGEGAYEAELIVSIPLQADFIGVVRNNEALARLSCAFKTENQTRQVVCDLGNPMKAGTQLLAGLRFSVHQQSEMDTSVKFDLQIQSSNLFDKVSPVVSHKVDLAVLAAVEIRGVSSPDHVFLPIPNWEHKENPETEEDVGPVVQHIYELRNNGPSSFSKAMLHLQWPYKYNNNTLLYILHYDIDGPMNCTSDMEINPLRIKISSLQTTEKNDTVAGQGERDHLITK
T1 sequence (P06756 891-1048 limits assumed): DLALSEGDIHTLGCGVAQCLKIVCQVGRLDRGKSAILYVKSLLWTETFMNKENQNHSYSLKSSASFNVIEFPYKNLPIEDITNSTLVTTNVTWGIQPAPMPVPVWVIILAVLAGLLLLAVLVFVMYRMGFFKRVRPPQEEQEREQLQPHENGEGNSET
T1 sequence (G3HZ55 21-798): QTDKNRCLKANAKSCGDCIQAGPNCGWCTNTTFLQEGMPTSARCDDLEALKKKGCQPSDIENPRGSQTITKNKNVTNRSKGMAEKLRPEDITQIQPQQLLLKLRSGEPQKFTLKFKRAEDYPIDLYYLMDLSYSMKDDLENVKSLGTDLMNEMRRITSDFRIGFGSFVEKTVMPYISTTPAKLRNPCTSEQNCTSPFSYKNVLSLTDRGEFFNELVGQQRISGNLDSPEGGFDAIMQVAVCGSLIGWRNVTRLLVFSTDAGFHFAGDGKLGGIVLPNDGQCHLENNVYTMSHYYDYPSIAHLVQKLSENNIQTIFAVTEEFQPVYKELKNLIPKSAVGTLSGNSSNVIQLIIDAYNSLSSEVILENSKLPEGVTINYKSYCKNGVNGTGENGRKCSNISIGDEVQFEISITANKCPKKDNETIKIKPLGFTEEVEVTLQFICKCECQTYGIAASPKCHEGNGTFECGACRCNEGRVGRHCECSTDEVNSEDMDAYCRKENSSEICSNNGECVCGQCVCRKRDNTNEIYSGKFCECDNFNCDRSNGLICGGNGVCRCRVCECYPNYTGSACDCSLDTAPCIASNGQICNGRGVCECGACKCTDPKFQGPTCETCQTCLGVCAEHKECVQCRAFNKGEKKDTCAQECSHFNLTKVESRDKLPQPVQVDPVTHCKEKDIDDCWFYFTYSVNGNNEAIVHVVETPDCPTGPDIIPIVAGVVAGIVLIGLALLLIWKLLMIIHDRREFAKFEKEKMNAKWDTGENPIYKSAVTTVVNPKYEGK

Structure (SMILES)	IC50 [nM]
Cc1ccnc(NCCCC(=O)Nc2ccc(C[C@H](NC(=O)c3c(Cl)cccc3Cl)C(=O)O)cc2)c1 [HU-899]	< 100
N=C(N)NCCc1cn(-c2ccc(C[C@H](NC(=O)c3c(Cl)cccc3Cl)C(=O)O)cc2)nn1 [JM-39, (S)-2-(2,6-dichlorobenzamido)-3-(4-(4-(2-guanidinoethyl)-1H-1,2,3-triazol-1-yl)phenyl)propanoic acid]	100 to 10000
O=C(CCCCNC1=NCCN1)Nc1ccc(C[C@H](NC(=O)c2c(Cl)cccc2Cl)C(=O)O)cc1 [JM-61]	100 to 10000
N=C(N)NCCCn1cc(-c2ccc(C[C@H](NC(=O)c3c(Cl)cccc3Cl)C(=O)O)cc2)nn1 [JM-141]	< 100
N=C(N)Nc1ccc2c(c1)C(=O)N(c1ccc(C[C@H](NC(=O)c3c(Cl)cccc3Cl)C(=O)O)cc1)CC2 [JM-175]	100 to 10000
N=C(N)NCCCc1coc(-c2ccc(C[C@H](NC(=O)c3c(Cl)cccc3Cl)C(=O)O)cc2)n1 [JM-185]	100 to 10000
N=C(N)NCCCc1csc(-c2ccc(C[C@H](NC(=O)c3c(Cl)cccc3Cl)C(=O)O)cc2)n1 [JM-192]	100 to 10000
O=C(N[C@@H](Cc1ccc(-n2cc(CNc3ccccn3)nn2)cc1)C(=O)O)c1c(Cl)cccc1Cl [JM-230]	100 to 10000

Further lines, results first:

IC50 [nM]	Structure (SMILES)
100 to 10000	COc1cccc(OC)c1C(=O)N[C@@H](Cc1ccc(NC(=O)CCCNc2ccccn2)cc1)C(=O)O [HIJ-886, (S)-2-(2,6-dimethoxybenzamido)-3-(4-(4-(pyridin-2-ylamino)butanamido)phenyl)propanoic acid]
100 to 10000	Cc1cccc(Cl)c1C(=O)N[C@@H](Cc1ccc(NC(=O)CCCNc2ccccn2)cc1)C(=O)O [HIJ-888, (S)-2-(2-chloro-6-methylbenzamido)-3-(4-(4-(pyridin-2-ylamino)butanamido)phenyl)propanoic acid]
< 100	O=C(CCCNc1ccccn1)Nc1ccc(C[C@H](NC(=O)c2c(F)cccc2Br)C(=O)O)cc1 [HIJ-889, (S)-2-(2-bromo-6-fluorobenzamido)-3-(4-(4-(pyridin-2-ylamino)butanamido)phenyl)propanoic acid]
< 100	Cc1cccc(C)c1C(=O)N[C@@H](Cc1ccc(NC(=O)CCCNc2ccccn2)cc1)C(=O)O [HIJ-890, (S)-2-(2,6-dimethylbenzamido)-3-(4-(4-(pyridin-2-ylamino)butanamido)phenyl)propanoic acid]
100 to 10000	CSc1ccccc1C(=O)N[C@@H](Cc1ccc(NC(=O)CCCNc2ccccn2)cc1)C(=O)O [HIJ-891, (S)-2-(2-(methylthio)benzamido)-3-(4-(4-(pyridin-2-ylamino)butanamido)phenyl)propanoic acid]
100 to 10000	O=C(CCCNc1ccccn1)Nc1ccc(C[C@H](NC(=O)c2cccc(-c3ccccc3)c2)C(=O)O)cc1 [HIJ-892, (S)-2-([1,1′-biphenyl]-3-carboxamido)-3-(4-(4-(pyridin-2-ylamino)butanamido)phenyl)propanoic acid]
100 to 10000	O=C(CCCCNc1ccccn1)Nc1ccc(C[C@H](NC(=O)c2c(Cl)cccc2Cl)C(=O)O)cc1 [YT-43]
100 to 10000	O=C(CCCc1ccc2c(n1)NCCC2)Nc1ccc(C[C@H](NC(=O)c2c(Cl)cccc2Cl)C(=O)O)cc1 [YT-101]
< 100	O=C(CCCNc1ccccn1)Nc1ccc(C[C@H](NC(=O)c2c(Cl)cccc2Cl)C(=O)O)cc1 [YT-103, (S)-2-(2,6-dichlorobenzamido)-3-(4-(4-(pyridin-2-ylamino)butanamido)phenyl)propanoic acid]
100 to 10000	N=C(N)NCCCC(=O)Nc1ccc(C[C@H](NC(=O)c2c(Cl)cccc2Cl)C(=O)O)cc1 [YT-107]
100 to 10000	O=C(CCCCc1ccc2c(n1)NCCC2)Nc1ccc(C[C@H](NC(=O)c2c(Cl)cccc2Cl)C(=O)O)cc1 [YT-115]
< 100	O=C(CCc1ccc2c(n1)NCCC2)Nc1ccc(C[C@H](NC(=O)c2c(Cl)cccc2Cl)C(=O)O)cc1 [YT-119]
